Data from PubChem BioAssay (NCI).
Values joined by “and” are separate entries in the source; they are usually repeats but may differ in a detail not shown here. Identical values can stand only once.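 The compound was tested at five concentrations on cells cultured in 96-well plates, with a 48-hour exposure period. GI50 is the concentration that inhibits growth by half. TGI: concentration producing complete growth inhibition.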

Columns and labels:
Assay in all cases: NCI anticancer screen, dose series, 48 h
RPMI-8226 leukemia = system: RPMI-8226 leukemia
HCC-2998 colon = system: HCC-2998 colon
HT29 colon = system: HT29 colon
BT-549 breast = system: BT-549 breast
SW-620 colon = system: SW-620 colon
M14 melanoma = system: M14 melanoma
K-562 leukemia = system: K-562 leukemia
MDA-MB-435 = system: MDA-MB-435
OVCAR-3 ovarian = system: OVCAR-3 ovarian
UACC-257 melanoma = system: UACC-257 melanoma

Structure (SMILES) | GI50 (RPMI-8226 leukemia) [µM] | TGI (RPMI-8226 leukemia) | GI50 (HCC-2998 colon) [µM] | TGI (HCC-2998 colon) | GI50 (HT29 colon) [µM] | TGI (HT29 colon) [µM] | GI50 (BT-549 breast) [µM] | TGI (BT-549 breast) | GI50 (SW-620 colon) [µM] | TGI (SW-620 colon) [µM] | GI50 (M14 melanoma) [µM] | TGI (M14 melanoma) | GI50 (K-562 leukemia) [µM] | TGI (K-562 leukemia) [µM] | GI50 (MDA-MB-435) [µM] | TGI (MDA-MB-435) | GI50 (OVCAR-3 ovarian) [µM] | TGI (OVCAR-3 ovarian) [µM] | TGI (UACC-257 melanoma) [µM] | GI50 (UACC-257 melanoma) [µM]
CCCCS(=O)(=O)c1cc(Nc2ccc(O)c3c2C(=O)c2ccccc2C3=O)ccc1C | > 100 | > 100 µM | > 100 | > 100 µM | > 100 | > 100 | > 100 | > 100 µM | > 100 | > 100 | 2.87 | > 100 µM |  |  |  |  |  |  |  | 
C[C@]12CCC3c4ccc(O)cc4CCC3C1CC[C@@H]2NC(=O)/C=C/c1ccc(O)c(O)c1 (some centres not stated) | 4.39 | 24.8 µM | 15.6 | 30.3 µM | 3.97 | 15.4 |  |  | 15.9 | 45 | 10.6 | 22.9 µM | 6.51 | 55.4 | 13.6 | 39.1 µM | 21.5 | 48.7 |  | 
C=C1C(=O)O[C@@H]2C[C@@H](C)[C@@H]3C=CC(=O)[C@@]3(C)[C@@H](OC(=O)CCCC(=O)O[C@H]3[C@@H]4C(=C)C(=O)O[C@@H]4C[C@@H](C)[C@@H]4C=CC(=O)[C@]43C)[C@H]12 |  |  |  | 1.27 µM |  | 0.152 |  | 0.07 µM |  | 0.0432 |  | 0.0584 µM |  | 0.0363 |  | 0.0329 µM |  | 0.275 | 0.271 | 
COc1ccc(-c2cn3ccnc3c(-c3ccc(Cl)cc3)n2)cc1 | 4.58 | 91.3 µM |  |  | 6.66 | > 100 | 16.5 | > 100 µM | 4.51 | > 100 | 5.95 | > 100 µM | 4.01 | > 100 | 2.56 | 8.62 µM | 3.19 | 71.8 | 48 | 6.81
CCOC(=O)NN1C(=O)C(=P(c2ccccc2)(c2ccccc2)c2ccccc2)C(C(=O)OC)=C1C |  | > 100 µM |  | > 100 µM |  | > 100 |  |  |  | > 100 |  | > 100 µM |  | > 100 |  |  |  | > 100 | > 100 | 
Cc1cccc(C=NC23CC4CC(CC(C4)C2)C3)c1 |  | > 100 µM |  | > 100 µM |  | > 100 |  |  |  | > 100 |  | > 100 µM |  | > 100 |  |  |  | > 100 | > 100 | 
COc1ccc(/C=C(\C#N)c2cc(OC)c(OC)c(OC)c2)cc1 | 0.0483 | 27 µM | 0.0283 | 1.25 µM | 0.0251 | 17.8 | 0.0282 | 0.0883 µM | 0.0282 | > 100 | 0.0269 | > 100 µM | < 0.01 | > 100 |  |  | < 0.014 | 0.0322 | > 100 | 0.012
C/C(=N/NC(N)=S)C(CN1CCOCC1)C(C1=C(O)c2ccccc2OC1)c1ccccc1 (configuration not stated) |  | > 100 µM |  | > 100 µM |  | > 100 |  |  |  | > 100 |  | > 100 µM |  | > 100 |  |  |  | > 100 | > 100 | 
CCCC(=O)Nc1cc(/C=C/C(=O)N2C[C@@H]3C[C@]34C2=CC(=O)c2[nH]cc(C)c24)n(C)c1 | 0.193 | 3.72 µM and 0.757 µM | 0.114 | 0.687 µM and 0.37 µM |  | 2.77 | 0.233 | 1.96 µM and 0.749 µM |  | 25 | 0.0672 | 1.55 µM and 0.22 µM |  | 25 | 0.184 | 1.05 µM and 0.471 µM |  | 1.2 |  | 
C=C(CN1CCc2ccccc2C1)c1ccc(CCCC(=O)Nc2ccccc2N)cc1 | 5.37 | 22.2 µM | 21.1 | 43.2 µM | 13.1 | 30.4 |  |  | 15.6 | 32.1 | 15.8 | 33 µM | 0.505 | 25.3 | 11.9 | 26.4 µM | 9.81 | 22.2 | 42 | 17.4
CSC(=S)NCc1cn(C)c2ccccc12 | 30.7 | > 100 µM | 25.1 | 98.7 µM | 65.3 | > 100 | 20 | 54.2 µM | 30.1 | > 100 | 64.8 | > 100 µM |  |  | 27.8 | > 100 µM | 23.4 | 80.4 | > 100 | 54.8
COC(=O)N[C@@H](C)CNc1nccc(-c2cn(C(C)C)nc2-c2cc(Cl)cc(NS(C)(=O)=O)c2F)n1 | > 70 | > 100 µM | 30.9 | > 100 µM | < 0.01 | > 100 | > 100 | > 100 µM | 12.1 | > 100 | < 0.01 |  | 33.6 | > 100 | < 0.01 | > 100 µM | 62.8 | > 100 |  | 
COc1c(OC2OC(C)C(O)C(O)C2O)c(OC)c2oc(-c3ccc(O)cc3)cc(=O)c2c1O (configuration not stated) | 28.2 | > 100 µM | 37.2 | > 100 µM | 30 | > 100 | 25.4 | 72.6 µM | 35.7 | > 100 |  |  | 26.2 | > 100 | 29.1 | 78.5 µM | 21.5 | 64.4 | 28.1 | 3.97
CCNC(=O)COc1ccc(Cl)c(C)c1 |  | > 100 µM |  | > 100 µM |  | > 100 |  |  |  | > 100 |  | > 100 µM |  | > 100 |  |  |  | > 100 | > 100 | 
O=C(O)C(Cc1ccccc1)N1C(=O)/C(=C/C(Cl)=C/c2ccc([N+](=O)[O-])cc2)SC1=S (configuration not stated) | 3.22 | > 100 µM | 1.96 | 3.5 µM | 2.84 | 8.47 |  |  |  |  |  |  | 3.01 | > 100 | 2.27 | 6 µM | 1.76 | 3.51 | 4.95 | 1.97
COc1ccc(C(=O)c2ccccc2)c(O)c1 | 82.2 | > 100 µM | > 100 | > 100 µM | 43.8 | > 100 |  |  | > 100 | > 100 | 81.7 | > 100 µM | 91 | > 100 | 66.6 | > 100 µM | > 100 | > 100 | > 100 | > 100
